Reference: the OPERA property sets (Mansouri et al. 2018)

details: not given

**Q.** With `CC(CCl)[N+](=O)[O-]` (configuration not stated) as the compound, how does the boiling point read?
**A.** The boiling point was 172 °C.

**Q.** With `OCCC1CCCCC1` as the compound, how does the boiling point read?
**A.** The boiling point was 208 °C.

**Q.** What about the log10 vapour pressure (mmHg) of the same compound?
**A.** The log10 vapour pressure (mmHg) was -0.78.

**Q.** What about the melting point of the same compound?
**A.** The melting point was -20 °C.

**Q.** For `c1ccc(-c2ccccc2)cc1`, which boiling point is on record?
**A.** Its boiling point is 256 °C.

**Q.** And the log10 Henry constant (atm·m³/mol)?
**A.** Its log10 Henry constant (atm·m³/mol) is -3.51.

**Q.** And the log10 Koa?
**A.** Its log10 Koa is 6.15.

**Q.** What about the log10 Koc (L/kg) of the same compound?
**A.** The log10 Koc (L/kg) was 3.27.

**Q.** What about the log10 biodegradation half-life (days) of the same compound?
**A.** Its log10 biodegradation half-life (days) is 1.49.

**Q.** And the log10 vapour pressure (mmHg)?
**A.** Its log10 vapour pressure (mmHg) is -2.05.

**Q.** And the ready biodegradability?
**A.** Its ready biodegradability is “readily biodegradable”.

**Q.** For `COC(=O)c1ccc(C)cc1C`, which boiling point is on record?
**A.** The boiling point was 232 °C.

**Q.** And the melting point?
**A.** Its melting point is -2 °C.

**Q.** For `Clc1cc(Cl)cc(-c2ccc(Cl)c(Cl)c2)c1`, which log10 Henry constant (atm·m³/mol) is on record?
**A.** The log10 Henry constant (atm·m³/mol) was -4.05.

**Q.** Which melting point does the source give for `Cc1cc(C=O)ccc1O` here?
**A.** The melting point was 119 °C.

**Q.** For `Cc1nccs1`, which boiling point is on record?
**A.** The boiling point was 128 °C.

**Q.** With `O=C(O)/C=C/C=C/C(=O)O` as the compound, how does the melting point read?
**A.** The melting point was 301 °C.

**Q.** With `N=C(N)NS(=O)(=O)c1ccc(N)cc1` as the compound, how does the melting point read?
**A.** The melting point was 192 °C.

**Q.** Which log10 Koc (L/kg) does the source give for `NC(=O)Nc1cccc(Br)c1` here?
**A.** Its log10 Koc (L/kg) is 2.12.

**Q.** With `C=C(CC)CCCC` as the compound, how does the boiling point read?
**A.** Its boiling point is 120 °C.

**Q.** What about the log10 vapour pressure (mmHg) of the same compound?
**A.** The log10 vapour pressure (mmHg) was 1.29.

**Q.** With `O=[N+]([O-])c1ccc(Cc2ccncc2)cc1` as the compound, how does the melting point read?
**A.** The melting point was 71 °C.

**Q.** Which boiling point does the source give for `Cc1ccccc1S` here?
**A.** Its boiling point is 195 °C.

**Q.** What about the log10 vapour pressure (mmHg) of the same compound?
**A.** The log10 vapour pressure (mmHg) was -0.193.

**Q.** What about the melting point of the same compound?
**A.** Its melting point is 15 °C.

**Q.** For `N#Cc1c(Cl)cccc1Cl`, which boiling point is on record?
**A.** The boiling point was 270 °C.

**Q.** What about the log10 Koc (L/kg) of the same compound?
**A.** Its log10 Koc (L/kg) is 2.5.

**Q.** What about the log10 vapour pressure (mmHg) of the same compound?
**A.** Its log10 vapour pressure (mmHg) is -3.18.

**Q.** And the melting point?
**A.** Its melting point is 144 °C.

**Q.** Which boiling point does the source give for `CCOC(=O)CCCCC(=O)OCC` here?
**A.** The boiling point was 245 °C.

**Q.** What about the log10 vapour pressure (mmHg) of the same compound?
**A.** The log10 vapour pressure (mmHg) was -1.24.

**Q.** What about the melting point of the same compound?
**A.** The melting point was -19.8 °C.

**Q.** With `O=C(O)c1cc(I)cc(I)c1O` as the compound, how does the melting point read?
**A.** The melting point was 236 °C.

**Q.** Which boiling point does the source give for `C[C@H](Oc1ccccc1)C(=O)O` here?
**A.** The boiling point was 266 °C.

**Q.** And the melting point?
**A.** Its melting point is 118 °C.

**Q.** For `COc1cc2ccc(=O)oc2c(O)c1O`, which melting point is on record?
**A.** Its melting point is 231 °C.

**Q.** Which melting point does the source give for `CCP(=O)(c1ccccc1)c1ccccc1` here?
**A.** Its melting point is 122 °C.

**Q.** Which boiling point does the source give for `Cc1ccc(C=O)c(O)c1` here?
**A.** The boiling point was 223 °C.

**Q.** What about the melting point of the same compound?
**A.** The melting point was 60.5 °C.

**Q.** Which melting point does the source give for `O=C(CCc1ccc(O)cc1)c1c(O)cc(O)cc1O[C@@H]1O[C@H](CO)[C@@H](O)[C@H](O)[C@H]1O` here?
**A.** Its melting point is 110 °C.

**Q.** With `CC(C)=CCC(C)C` as the compound, how does the boiling point read?
**A.** Its boiling point is 112 °C.

**Q.** And the log10 vapour pressure (mmHg)?
**A.** Its log10 vapour pressure (mmHg) is 1.4.

**Q.** With `CC(=O)O[C@H]1C[C@@]2(C)[C@@H](C[C@@H](O)[C@H]3[C@@]4(C)CC[C@@H](O)[C@@H](C)[C@@H]4CC[C@@]32C)/C1=C(\CCC=C(C)C)C(=O)O` as the compound, how does the melting point read?
**A.** Its melting point is 192 °C.

**Q.** For `Cc1ccc(CCl)c(C)c1`, which boiling point is on record?
**A.** Its boiling point is 216 °C.

**Q.** Which melting point does the source give for `Cc1ccccc1N=Nc1c(N)ccc2ccccc12` here?
**A.** Its melting point is 126 °C.

**Q.** Which boiling point does the source give for `Oc1c(F)c(F)c(C(F)(F)F)c(F)c1F` here?
**A.** The boiling point was 164 °C.

**Q.** For `CCC#CCCCCC(=O)O`, which melting point is on record?
**A.** The melting point was 14 °C.

**Q.** For `O=C(O)c1cc([N+](=O)[O-])ccc1Cl`, which melting point is on record?
**A.** Its melting point is 166 °C.

**Q.** What does the source list for `Clc1cc(Cl)c2c(Cl)c(Cl)cc(Cl)c2c1Cl`?
**A.** log10 Koa: 9.69; log10 vapour pressure (mmHg): -6.46

**Q.** Which boiling point does the source give for `CCOC(OCC)C(Cl)(Cl)Cl` here?
**A.** Its boiling point is 197 °C.

**Q.** Which log10 Koc (L/kg) does the source give for `CCCSC(=O)N(CCC)CCC` here?
**A.** The log10 Koc (L/kg) was 2.33.

**Q.** And the log10 vapour pressure (mmHg)?
**A.** The log10 vapour pressure (mmHg) was -1.98.

**Q.** Which melting point does the source give for `c1ccc(OCCOc2ccccc2)cc1` here?
**A.** The melting point was 98 °C.

**Q.** Which boiling point does the source give for `CC(C)CCSCCC(C)C` here?
**A.** The boiling point was 211 °C.

**Q.** What about the log10 vapour pressure (mmHg) of the same compound?
**A.** The log10 vapour pressure (mmHg) was -0.497.

**Q.** What about the melting point of the same compound?
**A.** The melting point was -74.6 °C.

**Q.** Which results are given for `Fc1cccc(C(F)(F)F)c1`?
**A.** boiling point: 102 °C; melting point: -81.5 °C

**Q.** With `CCC(Cl)(Cl)Cl` as the compound, how does the boiling point read?
**A.** The boiling point was 108 °C.

**Q.** What about the log10 vapour pressure (mmHg) of the same compound?
**A.** The log10 vapour pressure (mmHg) was 1.5.

**Q.** Which melting point does the source give for `C(=N\C(/N=C/c1ccco1)c1ccco1)/c1ccco1` here?
**A.** The melting point was 117 °C.

**Q.** With `Clc1cc2oc3c(Cl)cc(Cl)c(Cl)c3c2cc1Cl` as the compound, how does the log10 vapour pressure (mmHg) read?
**A.** The log10 vapour pressure (mmHg) was -8.82.

**Q.** And the melting point?
**A.** Its melting point is 237 °C.

**Q.** For `CCc1nc(C)c[nH]1`, which boiling point is on record?
**A.** Its boiling point is 294 °C.

**Q.** And the melting point?
**A.** Its melting point is 50.5 °C.

**Q.** With `C1CCC(CCCC2CCCCC2)CC1` as the compound, how does the boiling point read?
**A.** The boiling point was 292 °C.

**Q.** What about the melting point of the same compound?
**A.** The melting point was -17 °C.

**Q.** With `CCCCCNCCCCC` as the compound, how does the boiling point read?
**A.** The boiling point was 202 °C.

**Q.** And the log10 vapour pressure (mmHg)?
**A.** Its log10 vapour pressure (mmHg) is -0.815.

**Q.** And the ready biodegradability?
**A.** Its ready biodegradability is “readily biodegradable”.

**Q.** With `CCCCCCCC(=O)Cl` as the compound, how does the boiling point read?
**A.** Its boiling point is 196 °C.

**Q.** And the melting point?
**A.** Its melting point is -63 °C.

**Q.** With `CC(C)(C)C(=O)CC#N` as the compound, how does the melting point read?
**A.** The melting point was 71 °C.

**Q.** Which melting point does the source give for `C[C@]12CC[C@H]3[C@@H](CCC4=CC(=O)CC[C@@]43C)[C@@H]1CC[C@@H]2O` here?
**A.** Its melting point is 155 °C.

**Q.** For `CCCC(=O)OCc1ccco1`, which boiling point is on record?
**A.** Its boiling point is 212 °C.

**Q.** Which melting point does the source give for `CCOP(=O)(OCC)ON1C(=O)c2cccc3cccc(c23)C1=O` here?
**A.** Its melting point is 177 °C.

**Q.** For `Cc1ccc(C(=O)O)c(O)c1`, which melting point is on record?
**A.** The melting point was 177 °C.

**Q.** Which log10 Koc (L/kg) does the source give for `CC(C)OC(=O)Nc1ccccc1` here?
**A.** Its log10 Koc (L/kg) is 1.83.

**Q.** What about the log10 vapour pressure (mmHg) of the same compound?
**A.** The log10 vapour pressure (mmHg) was -3.85.

**Q.** What about the melting point of the same compound?
**A.** The melting point was 87.3 °C.

**Q.** Which boiling point does the source give for `COc1cccc(OC)c1` here?
**A.** Its boiling point is 218 °C.

**Q.** What about the melting point of the same compound?
**A.** Its melting point is -52 °C.

**Q.** And the ready biodegradability?
**A.** Its ready biodegradability is “readily biodegradable”.

**Q.** For `CCC(O)(CC)CC`, which boiling point is on record?
**A.** Its boiling point is 142 °C.

**Q.** What about the melting point of the same compound?
**A.** Its melting point is -12.5 °C.

**Q.** Which boiling point does the source give for `CC(C)CN(C)C` here?
**A.** The boiling point was 80.5 °C.

**Q.** Which results are given for `CC1COCc2cc3c(cc21)C(C)(C)C(C)C3(C)C` (configuration not stated)?
**A.** boiling point: 325 °C; log10 vapour pressure (mmHg): -3.26; melting point: -5 °C

**Q.** Which melting point does the source give for `CC(O)CNCCN` (configuration not stated) here?
**A.** The melting point was -50 °C.

same assay, conditions: fish

**Q.** For `CC1(C)[C@H](C(=O)O[C@@H](C#N)c2cccc(Oc3ccccc3)c2)[C@@H]1C=C(Cl)Cl` (single isomer, unassigned), which log10 biotransformation half-life (days) is on record?
**A.** The log10 biotransformation half-life (days) was 0.7.

**Q.** For `O=C(O)C(Cl)(Cl)Cl`, which log10 BCF is on record?
**A.** Its log10 BCF is 0.23.

**Q.** Which log10 BCF does the source give for `c1ccc(-c2ccccc2)cc1` here?
**A.** The log10 BCF was 2.64.

**Q.** Which log10 BCF does the source give for `Clc1cc(Cl)cc(-c2ccccc2)c1` here?
**A.** Its log10 BCF is 3.77.

**Q.** What about the log10 biotransformation half-life (days) of the same compound?
**A.** The log10 biotransformation half-life (days) was 1.11.

**Q.** With `Clc1ccc(-c2cc(Cl)cc(Cl)c2Cl)cc1` as the compound, how does the log10 biotransformation half-life (days) read?
**A.** Its log10 biotransformation half-life (days) is 2.43.
